# Assay results reported in article PMC6435570, “Zafirlukast Is a Dual Modulator of Human Soluble Epoxide Hydrolase and Peroxisome Proliferator-Activated Receptor γ” (Frontiers in Pharmacology, 2019).
# “Also recorded” adds a separate entry of the source.
# Experiments:
# 3T3-L1 cells = test: 3T3-L1 adipocyte differentiation, Oil Red O lipid accumulation; format: cell-based, murine; details: differentiation cocktail plus zafirlukast or montelukast 1, 5, 10 μM or rosiglitazone 2 μM; 14 days
# Description: (§1) 3T3-L1 cells were differentiated into adipocytes for 14 days according to the protocol of [Zebisch et al. (2012)]. For this, cells were seeded in 6-well plates ([…]) and differentiation was induced after 48 h by addition of a differentiation cocktail containing 1 μg/mL insulin, 0.25 μM dexamethasone and 0.5 mM isobutylmethylxanthine (IBMX) in DMEM supplemented with 10% FCS and 1% PS. […] After 2 days, medium was replaced by DMEM supplemented with 10% FCS, 1% PS and 1 μg/mL insulin for 2 more days. Afterwards, cells were kept for lipid droplet accumulation in DMEM containing 10% FCS and 1% PS until day 15. Media were replaced every other day.
# Differentiated 3T3-L1 cells were washed with PBS and subsequently fixed for 60 min with formaldehyde (4% in PBS). Afterwards, cells were thoroughly rinsed with 60% isopropanol and incubated with Oil Red O solution (0.3% in 60% isopropanol) for 120 min. This was followed by the removal of the staining solution and thorough rinsing of the cell layer with ultrapure water. Finally, the plates were dried and pictures of the stained cell layers were taken.
# For quantification of the accumulated dye, 3T3-L1 cells were seeded in 24-well plates (0.55 × 10^5/well) instead of 6-wells and the differentiation was carried out as described in the section ‘Adipocyte differentiation’. After 14 days of differentiation, cells were fixed and stained as described above. […] 100 μl of dye extract were transferred to a 96-well plate and absorbance was measured (λabs = 510 nm) by an Infinite F200 plate reader (Tecan Group Ltd., Männedorf, Switzerland). […]
# As master regulator of adipocyte differentiation in men and mice, PPARγ plays a crucial role in the cell’s commitment to the adipocyte lineage by controlling important functions such as intracellular biosynthesis, transport and accumulation of lipids. […] Upon differentiation, different parameters such as lipid accumulation and PPARγ target gene expression can be assessed to investigate the PPARγ activating potential of the compounds of interest. […]
# [1] = target: T1, human PPARα ligand binding domain (Homo sapiens, UniProt Q07869); test: PPAR reporter gene assay (Gal4 hybrid, PPARα); format: cell-based; details: HEK-293T, reference GW7647 1 μM, tested up to 10 μM
# T1 construct: expressed in transfected cells; host or cells: HEK-293T
# T1 sequence (Q07869 239-466 limits assumed): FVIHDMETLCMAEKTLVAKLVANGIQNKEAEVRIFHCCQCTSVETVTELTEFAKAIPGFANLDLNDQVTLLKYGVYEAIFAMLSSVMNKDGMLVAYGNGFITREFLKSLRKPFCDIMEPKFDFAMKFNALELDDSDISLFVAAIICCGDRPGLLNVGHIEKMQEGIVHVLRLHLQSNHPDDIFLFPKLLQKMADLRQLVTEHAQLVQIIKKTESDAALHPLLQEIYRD
# Description: (§2) HEK-293T cells were seeded in 96-well plates (2.5 × 10^4 cells/well) and were allowed to adhere overnight. Before transfection, medium was changed to Opti-MEM without supplements. Transient plasmid transfection was carried out using Lipofectamine LTX reagent (Invitrogen, Carlsbad, CA, United States) according to the manufacturer’s protocol with pFR-Luc (Stratagene, La Jolla, CA, United States), pRL-SV40 (Promega, Fitchburg, MA, United States) and pFA-CMV-PPAR-LBD ([Rau et al., 2006]). 5 h after transfection, medium was changed to Opti-MEM supplemented with penicillin (100 U/mL) and streptomycin (100 μg/mL), now additionally containing 0.1% DMSO and the respective test compound or 0.1% DMSO alone as untreated control. Each concentration was tested in triplicates and each experiment was repeated independently at least four times. Following overnight (12–16 h) incubation with the test compounds, cells were assayed for luciferase activity using the Dual-Glo^TM Luciferase Assay System (Promega, Fitchburg, MA, United States) according to the manufacturer’s protocol. Luminescence was measured with an Infinite M200 luminometer (Tecan Group Ltd., Männedorf, Switzerland). Normalization of transfection efficiency and cell growth was done by division of firefly luciferase data by renilla luciferase data and multiplying the value by 1000 resulting in relative light units (RLU). Fold activation was obtained by dividing the mean RLU of a test compound at a respective concentration by the mean RLU of untreated control. Relative activation was obtained by dividing the fold activation of a test compound at a respective concentration by the fold activation of the respective PPARα, γ or δ full agonist GW-7647, pioglitazone or L165,041 at 1 μM. EC50 and standard deviation were calculated with the mean relative activation values of at least four independent experiments by SigmaPlot 10.0 (Systat Software GmbH, Erkrath, Germany) using a four parameter logistic regression. […]
# [2] = target: T2, human PPARδ ligand binding domain (Homo sapiens, UniProt Q03181); test: PPAR reporter gene assay (Gal4 hybrid, PPARδ); format: cell-based; details: HEK-293T, reference L165,041 1 μM, tested up to 10 μM
# T2 construct: expressed in transfected cells; host or cells: HEK-293T
# T2 sequence (Q03181 211-439 limits assumed): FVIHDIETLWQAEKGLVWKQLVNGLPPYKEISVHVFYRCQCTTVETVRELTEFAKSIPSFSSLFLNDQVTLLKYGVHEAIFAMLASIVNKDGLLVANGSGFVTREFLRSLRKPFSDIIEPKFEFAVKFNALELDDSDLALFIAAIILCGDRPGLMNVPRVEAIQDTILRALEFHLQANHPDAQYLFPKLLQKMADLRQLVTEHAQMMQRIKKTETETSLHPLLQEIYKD
# Description: as §2
# [3] = tested on: PPARγ target genes (LPL, GLUT-4, FABP-4, adiponectin) in 3T3-L1 adipocytes; test: PPARγ target gene mRNA expression in differentiated 3T3-L1 adipocytes (qRT-PCR); format: cell-based, murine; details: after 14 days; for mRNA expression of PPARγ target genes (LPL, GLUT-4, FABP-4, adiponectin): normalized to cells with activation cocktail only
# Description: as §1
# 3T3-L1 cells were lysed using TRIzol® reagent (Ambion Life Technologies, Carlsbad, CA, United States). Subsequently, mRNA was isolated following the manufacturers protocol. DNA contaminations were digested using DNAse (DNase I, RNase-free Kit; Thermo Scientific, Waltham, MA, United States) and mRNA concentrations were determined using a NanoDrop^TM2000 spectrophotometer (Thermo Scientific, Waltham, MA, United States). Afterwards, reverse transcription was performed using the High Capacity RNA-to-cDNA Kit (Applied Biosystems, Foster City, CA, United States) following the manufacturers protocol. […] Relative mRNA expression was determined by the 2^-ΔΔCt method normalized to murine non-POU domain-containing octamer binding protein (Nono). All samples were measured in triplicates and experiments were repeated independently at least three times.
# To gain further insight in PPARγ activation after compound treatment, mature 3T3-L1 adipocytes were harvested after 14 days and mRNA was isolated, reverse transcribed and subjected to quantitative RT-PCR. mRNA expression of the PPARγ target genes lipoprotein lipase (LPL), the glucose transporter 4 (GLUT-4), the fatty acid binding protein 4 (FABP-4) and adiponectin was monitored by quantitative PCR (Figure 3A–D and Supplementary Figure S1). […]
Compound,Lipid accumulation (Oil Red O staining) (3T3-L1 cells),PPARα EC50 [1],PPARδ EC50 [2],"mRNA expression of PPARγ target genes (LPL, GLUT-4, FABP-4, adiponectin) [3]",Adiponectin mRNA level ([3]; compared to the other target genes)
"CC(C)(O)c1ccccc1CC[C@@H](SCC1(CC(=O)O)CC1)c1cccc(/C=C/c2ccc3ccc(Cl)cc3n2)c1 [Montelukast, montelukast]",did not trigger any lipid accumulation; also recorded: did not induce cell lipid accumulation,i.a. @ 10 μM,i.a. @ 10 μM,did not influence the expression,
"COc1cc(C(=O)NS(=O)(=O)c2ccccc2C)ccc1Cc1cn(C)c2ccc(NC(=O)OC3CCCC3)cc12 [Zafirlukast, zafirlukast]","induced lipid accumulation in a dose-dependent manner, but to a lesser extend compared to rosiglitazone",i.a. @ 10 μM,i.a. @ 10 μM,dose-dependently induced target gene expression although to a lesser extent compared to rosiglitazone,elevated adiponectin levels more effectively compared to the other target genes
